Experimental findings from patent US20120232070A1, “Use of Indole Derivatives as Nurr-1 Activators for the Application Thereof as a Medicament for the Treatment of Parkinson's Disease” (Laboratoires Fournier SA, priority 2009, published 2012) are described below.

Molecules are shown by their SMILES.

Assay [1] has as its target hNurr1_RXRγFL (NURR1/RXRγ heterodimer) (Homo sapiens, UniProt P43354+P48443). Nature of the assay: Transactivation assay in Cos-7 cells, NURR-1-Gal4 / RXRγ, luciferase reporter. The assay is classed as cell-based. To be noted: for Emax: COS-7, read-out: hNurr1_RXRγFL Eff (%), efficacy in % relative to the reference XCT0135908 at 2·10^−5 M (=100%); for EC50: Cos-7 cells, overnight incubation. In a few lines:
(§1)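 Cos-7 cells co-transfected with human NURR-1-Gal4 chimera, human RXRα or RXRγ, and 5Gal4pGL3-TK-Luc reporter; compounds added at 10^−4 to 3·10^−10 M final, overnight incubation, luciferase read. Induction over each heterodimer's baseline expressed as % of reference RXR agonist XCT0135908 (2·10^−5 M) taken as 100%.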

The target in assay [2] is hNurr1_RXRαFL (NURR1/RXRα heterodimer) (Homo sapiens, UniProt P19793+P43354). Nature of the assay: Transactivation assay in Cos-7 cells, NURR-1-Gal4 / RXRα, luciferase reporter. The assay is classed as cell-based. Particulars: for Emax: COS-7, read-out: hNurr1_RXRαFL Eff (%), efficacy in % relative to the reference XCT0135908 at 2·10^−5 M (=100%); for EC50: Cos-7 cells, overnight incubation. An outline of the steps: as §1
Chain of hNurr1_RXRαFL (NURR1/RXRα heterodimer) (P19793 whole entry, the tested form may be a part): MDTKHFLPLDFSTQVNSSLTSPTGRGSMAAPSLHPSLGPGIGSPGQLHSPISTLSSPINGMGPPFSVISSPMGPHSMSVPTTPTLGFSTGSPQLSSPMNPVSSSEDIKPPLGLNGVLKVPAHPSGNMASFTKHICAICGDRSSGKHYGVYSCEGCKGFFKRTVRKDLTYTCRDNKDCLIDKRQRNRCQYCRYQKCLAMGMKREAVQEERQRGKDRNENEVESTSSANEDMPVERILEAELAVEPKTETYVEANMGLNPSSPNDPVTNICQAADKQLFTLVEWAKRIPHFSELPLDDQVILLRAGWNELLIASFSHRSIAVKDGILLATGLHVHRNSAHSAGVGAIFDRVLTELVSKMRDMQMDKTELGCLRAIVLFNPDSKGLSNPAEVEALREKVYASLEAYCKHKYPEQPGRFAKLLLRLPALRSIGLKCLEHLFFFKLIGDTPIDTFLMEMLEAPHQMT
Chain of hNurr1_RXRαFL (NURR1/RXRα heterodimer) (P43354 328-598): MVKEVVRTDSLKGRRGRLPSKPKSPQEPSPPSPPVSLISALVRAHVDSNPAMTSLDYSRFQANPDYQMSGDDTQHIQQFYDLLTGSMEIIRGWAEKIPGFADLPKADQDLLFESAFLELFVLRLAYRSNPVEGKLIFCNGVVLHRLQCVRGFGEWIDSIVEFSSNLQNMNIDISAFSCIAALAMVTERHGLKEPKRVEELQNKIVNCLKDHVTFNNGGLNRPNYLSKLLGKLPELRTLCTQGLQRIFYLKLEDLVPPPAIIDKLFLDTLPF

Chain of hNurr1_RXRγFL (NURR1/RXRγ heterodimer) (P43354 328-598): as above
Chain of hNurr1_RXRγFL (NURR1/RXRγ heterodimer) (P48443 whole entry, the tested form may be a part): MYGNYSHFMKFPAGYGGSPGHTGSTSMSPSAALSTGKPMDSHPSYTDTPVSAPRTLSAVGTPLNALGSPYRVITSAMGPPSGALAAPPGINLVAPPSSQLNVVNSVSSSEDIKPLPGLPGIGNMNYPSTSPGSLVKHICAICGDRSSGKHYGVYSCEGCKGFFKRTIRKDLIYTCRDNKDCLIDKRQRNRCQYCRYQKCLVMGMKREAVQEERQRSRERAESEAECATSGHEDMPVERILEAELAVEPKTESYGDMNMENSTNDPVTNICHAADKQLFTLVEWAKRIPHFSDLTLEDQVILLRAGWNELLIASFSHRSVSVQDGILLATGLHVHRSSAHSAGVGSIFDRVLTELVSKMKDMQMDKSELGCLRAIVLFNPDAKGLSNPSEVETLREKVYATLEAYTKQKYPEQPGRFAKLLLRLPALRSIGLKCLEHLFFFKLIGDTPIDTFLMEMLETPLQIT

For `O=C(O)c1ccc(Cc2cc3cc(Cl)ccc3n2S(=O)(=O)c2ccc(F)c(Cl)c2)cc1` [Example 150, 4-[[1-[3-chloro-4-fluoro-phenylsulfonyl]-5-(chloro)-1H-indol-2-yl]methyl]benzoic acid], in assay [1], the Emax is 96% and a half-maximal response (EC50) required 501 nM. In addition, in assay [2], the Emax turned out to be 103% and the midpoint of the response, the EC50, lay at 299 nM.

As for `O=C(O)c1ccc(Cc2cc3cc(Cl)ccc3n2S(=O)(=O)c2ccc(-c3ccccc3)cc2)cc1` [Example 151, 4-[[1-[biphenyl-4-sulfonyl]-5-(chloro)-1H-indol-2-yl]methyl]benzoic acid], in assay [1], the Emax amounted to 17% and the EC50 is above 10000 nM. In addition, in assay [2], the Emax came to 80% and a half-maximal effect (EC50) was put at 427 nM.

Regarding `CCCc1ccc(S(=O)(=O)n2c(Cc3ccc(C(=O)O)cc3)cc3cc(Cl)ccc32)cc1` [Example 152, 4-[[1-[4-propyl-phenylsulfonyl]-5-(chloro)-1H-indol-2-yl]methyl]benzoic acid], the values for the Emax in assay [1] and in assay [2] were 75% and 87%, respectively. Also, the EC50 in assay [1] was 858 nM; in assay [2] it was 269 nM.

With `O=C(O)c1ccc(Cc2cc3cc(Cl)ccc3n2S(=O)(=O)c2ccc(F)c(F)c2)cc1` [Example 153, 4-[[1-[3-fluoro-4-fluoro-phenylsulfonyl]-5-(chloro)-1H-indol-2-yl]methyl]benzoic acid], in assay [1], the Emax stood at 63% and a half-maximal effect (EC50) was put at 1390 nM. In assay [2], the Emax stood at 85% and a half-maximal effect (EC50) was put at 851 nM.

As for `O=C(O)c1ccc(Cc2cc3cc(Cl)ccc3n2S(=O)(=O)c2cccc(F)c2)cc1` [Example 154, 4-[[1-[3-fluoro-phenylsulfonyl]-5-(chloro)-1H-indol-2-yl]methyl]benzoic acid], in assay [1], the Emax stood at 66% and the EC50 worked out at 1360 nM. In assay [2], the Emax is 68% and it took 472 nM to reach a half-maximal effect (EC50).

In the case of `CC(C)(C)c1ccc(S(=O)(=O)n2c(Cc3ccc(C(=O)O)cc3)cc3cc(Cl)ccc32)cc1` [Example 155, 4-[[1-[4-tert-butyl-phenylsulfonyl]-5-(chloro)-1H-indol-2-yl]methyl]benzoic acid], in assay [1], the Emax was 59% and the EC50 was 468 nM. For the same compound, in assay [2], the Emax was 69% and a half-maximal response (EC50) required 262 nM.

With `O=C(O)c1ccc(Cc2cc3cc(Cl)ccc3n2S(=O)(=O)c2ccc(OC(F)(F)F)cc2)cc1` [Example 156, 4-[[1-[4-trifluoromethoxy-phenylsulfonyl]-5-(chloro)-1H-indol-2-yl]methyl]benzoic acid], in assay [1], the Emax amounted to 43% and a half-maximal response (EC50) required 1300 nM. Further, in assay [2], the Emax was determined as 69% and it took 638 nM to reach a half-maximal effect (EC50).

For `O=C(O)c1ccc(Cc2cc3cc(Cl)ccc3n2S(=O)(=O)c2ccc3c(c2)OCCO3)cc1` [Example 157, 4-[[1-[2,3-dihydro-benzo[1,4]dioxin-6-sulfonyl]-5-(chloro)-1H-indol-2-yl]methyl]benzoic acid], the Emax amounted to 64% in assay [1] and 67% in assay [2]. For the same compound, the results for the EC50 in assay [1] and in assay [2] were 838 nM and 267 nM, respectively.

Consider `O=C(O)c1ccc(Cc2cc3cc(Cl)ccc3n2S(=O)(=O)c2ccc(C(F)(F)F)cc2)cc1` [Example 158, 4-[[1-[4-trifluoro-phenylsulfonyl]-5-(chloro)-1H-indol-2-yl]methyl]benzoic acid], for which the Emax in assay [1] came to 53%; in assay [2], 66%. The EC50 came out at 1260 nM in assay [1] and 504 nM in assay [2].

Take `CCc1ccc(S(=O)(=O)n2c(Cc3ccc(C(=O)O)cc3)cc3cc(Cl)ccc32)cc1` [Example 159, 4-[[1-[4-ethyl-phenylsulfonyl]-5-(chloro)-1H-indol-2-yl]methyl]benzoic acid]: in assay [1], the Emax came to 45% and the EC50 worked out at 785 nM. Further, in assay [2], the Emax came out at 66% and the response was half-maximal at 319 nM (EC50).

In the case of `O=C(O)c1ccc(Cc2cc3cc(Cl)ccc3n2S(=O)(=O)c2ccc(Cl)cc2)cc1` [Example 160, 4-[[1-[4-chloro-phenylsulfonyl]-5-(chloro)-1H-indol-2-yl]methyl]benzoic acid], in assay [1], the Emax was determined as 55% and the EC50 came out at 1390 nM. Also, in assay [2], the Emax worked out at 59% and the EC50 came to 462 nM.

Take `Cc1cccc(S(=O)(=O)n2c(Cc3ccc(C(=O)O)cc3)cc3cc(Cl)ccc32)c1` [Example 161, 4-[[5-chloro-1-[(3-methylphenyl)sulfonyl]-1H-indol-2-yl]methyl]benzoic acid]: the figures for the Emax in assay [1] and in assay [2] were 40% and 59%, respectively. Besides, the values for the EC50 in assay [1] and in assay [2] were 584 nM and 460 nM, respectively.

With `CC(C)Oc1ccc(S(=O)(=O)n2c(Cc3ccc(C(=O)O)cc3)cc3cc(Cl)ccc32)cc1` [Example 162, 4-[[1-[4-isopropoxy-phenylsulfonyl]-5-(chloro)-1H-indol-2-yl]methyl]benzoic acid], in assay [1], the Emax amounted to 40% and the EC50 amounted to 1550 nM. Also, in assay [2], the Emax was 56% and the EC50 worked out at 692 nM.

Turning to `O=C(O)c1ccc(Cc2cc3cc(Cl)ccc3n2S(=O)(=O)c2ccc3ccccc3c2)cc1` [Example 163, 4-[[5-chloro-1-(2-naphthalenylsulfonyl)-1H-indol-2-yl]methyl]benzoic acid], in assay [1], the Emax was 34% and the EC50 stood at 933 nM. Moreover, in assay [2], the Emax is 53% and the EC50 was 427 nM.

Take `O=C(O)c1ccc(Cc2cc3cc(Cl)ccc3n2S(=O)(=O)c2cccc(Cl)c2)cc1` [Example 164, 4-[[1-[3-chloro-phenylsulfonyl]-5-(chloro)-1H-indol-2-yl]methyl]benzoic acid]: in assay [1], the Emax is 47% and the midpoint of the response, the EC50, lay at 851 nM. Moreover, in assay [2], the Emax stood at 53% and a half-maximal response (EC50) required 753 nM.

As for `COc1ccc(S(=O)(=O)n2c(Cc3ccc(C(=O)O)cc3)cc3cc(Cl)ccc32)cc1` [Example 165, 4-[[1-[4-methoxy-phenylsulfonyl]-5-(chloro)-1H-indol-2-yl]methyl]benzoic acid], in assay [1], the Emax amounted to 37% and the EC50 was 2930 nM. For the same compound, in assay [2], the Emax worked out at 51% and the EC50 was 1140 nM.

For the compound `COc1cccc(S(=O)(=O)n2c(Cc3ccc(C(=O)O)cc3)cc3cc(Cl)ccc32)c1` [Example 166, 4-[[1-[3-methoxy-phenylsulfonyl]-5-(chloro)-1H-indol-2-yl]methyl]benzoic acid], in assay [1], the Emax is 27% and the EC50 was found to be 1070 nM. Besides, in assay [2], the Emax was 50% and a half-maximal response (EC50) required 681 nM.

As to `O=C(O)c1ccc(Cc2cc3cc(Cl)ccc3n2S(=O)(=O)c2ccc(F)cc2)cc1` [Example 167, 4-[[1-[4-fluoro-phenylsulfonyl]-5-(chloro)-1H-indol-2-yl]methyl]benzoic acid], in assay [1], the Emax came out at 40% and the EC50 came out at 2440 nM. In addition, in assay [2], the Emax was found to be 48% and it took 1150 nM to reach a half-maximal effect (EC50).

Consider `CCC(C)(C)c1ccc(S(=O)(=O)n2c(Cc3ccc(C(=O)O)cc3)cc3cc(Cl)ccc32)cc1` [Example 168, 4-[[5-chloro-1-[[4-(1,1-dimethylpropyl)phenyl]sulfonyl]-1H-indol-2-yl]methyl]benzoic acid], for which the values for the Emax in assay [1] and in assay [2] were 52% and 48%, respectively. In addition, the EC50 turned out to be 501 nM in assay [1] and 422 nM in assay [2].

For `COc1ccc(S(=O)(=O)n2c(Cc3ccc(C(=O)O)cc3)cc3cc(Cl)ccc32)cn1` [Example 169, 4-[[5-chloro-1-[(6-methoxy-3-pyridinyl)sulfonyl]-1H-indol-2-yl]methyl]benzoic acid], in assay [1], the Emax is 28% and a half-maximal response (EC50) required 2490 nM. Besides, in assay [2], the Emax is 46% and a half-maximal response (EC50) required 1010 nM.

For the compound `CCCCCc1ccc(S(=O)(=O)n2c(Cc3ccc(C(=O)O)cc3)cc3cc(Cl)ccc32)cc1` [Example 170, 4-[[1-[4-pentyl-phenylsulfonyl]-5-(chloro)-1H-indol-2-yl]methyl]benzoic acid], in assay [1], the Emax was found to be 26% and the EC50 is above 10000 nM. Further, in assay [2], the Emax worked out at 42% and a half-maximal response (EC50) required 1740 nM.

For the compound `Cc1ccc(S(=O)(=O)n2c(Cc3ccc(C(=O)O)cc3)cc3cc(Cl)ccc32)cc1` [Example 171, 4-[[5-chloro-1-[(4-methylphenyl)sulfonyl]-1H-indol-2-yl]methyl]benzoic acid], the Emax was found to be 31% in assay [1] and 40% in assay [2]. Besides, the EC50 in assay [1] stood at 944 nM; in assay [2], 510 nM.

As for `O=C(O)c1ccc(Cc2cc3cc(Cl)ccc3n2S(=O)(=O)c2ccc(-c3cccc(F)c3)cc2)cc1` [Example 172, 4-[[1-[3′-fluoro-biphenyl-4-sulfonyl]-5-(chloro)-1H-indol-2-yl]methyl]benzoic acid], the Emax was 47% in assay [1] and 82% in assay [2]. The EC50 in assay [1] came to 567 nM; in assay [2], 117 nM.

Turning to `CC1(C)CCc2ccc(S(=O)(=O)n3c(Cc4ccc(C(=O)O)cc4)cc4cc(Cl)ccc43)cc2O1` [Example 173, 4-[[5-chloro-1-[(3,4-dihydro-2,2-dimethyl-2H-1-benzopyran-7-yl)sulfonyl]-1H-indol-2-yl]methyl]-benzoic acid], in assay [1], the Emax came to 73% and the EC50 amounted to 498 nM. In assay [2], the Emax worked out at 78% and the EC50 was 145 nM.
